Results: ChEMBL document CHEMBL1156695, “The novel primaquine derivatives of N-alkyl, cycloalkyl or aryl urea: synthesis, cytostatic and antiviral activity evaluations” (Eur J Med Chem, 2008)
Activity calls are given as the source filed them. The rule behind the calls is not given here.

Test system: Vaccinia virus
Test: Antiviral activity against vaccinia virus infected in HEL cells assessed as reduction of virus-induced cytopathogenicity
Format: functional, organism-based
Details: Orthopoxvirus vaccinia

Compound | Activity
COc1cc(NC(C)CCCNC(=O)n2nnc3ccccc32)c2ncccc2c1 (stereo not given) [PRIMAQUINE BENZOTRIAZOLIDE] | inactive
COc1cc(NC(C)CCCNC(=O)NCc2ccccc2)c2ncccc2c1 (stereo not given) | inactive
COc1cc(NC(C)CCCNC(=O)NCC2CCCCC2)c2ncccc2c1 (stereo not given) | inactive
COc1cc(NC(C)CCCNC(=O)NC2CCCCC2)c2ncccc2c1 (stereo not given) | inactive
COc1cc(NC(C)CCCNC(=O)NC(c2ccccc2)c2ccccc2)c2ncccc2c1 (stereo not given) | inactive
COc1cc(NC(C)CCCNC(=O)NCc2ccncc2)c2ncccc2c1 (stereo not given) | inactive
COc1cc(NC(C)CCCNC(=O)NC2CCCC2)c2ncccc2c1 (stereo not given) | inactive
COc1cc(NC(C)CCCNC(=O)NCCc2ccccc2)c2ncccc2c1 (stereo not given) | inactive
CCN(CC)C(=O)NCCCC(C)Nc1cc(OC)cc2cccnc12 (stereo not given) | inactive
COc1cc(NC(C)CCCNC(=O)N(C2CCCCC2)C2CCCCC2)c2ncccc2c1 (stereo not given) | inactive
